Laboratory results reported in US9090657B2, “Compound and methods for its production” (NEUROVIVE PHARMACEUTICAL AB, priority 2011, dated 2015).
pEC50, pIC50: −log10 of the molar value. Read-outs that look alike come from different tables or passages of the source.

How the values were obtained:
MRP2 = MRP2 (Homo sapiens (Human), UniProt Q92887); test: Vesicular efflux transporter inhibition, MRP2
Procedure: (§1) To assess the inhibition of the MRP2, MRP3 and BSEP efflux transporters, an in vitro vesicular transporter assay from Solvo Biotechnology Inc. was used. […] In the case of MRP2 and MRP3 transporters reactions were carried out in the presence of 2 mM glutathione. Reaction mixtures were preincubated for ten minutes at 37° C. Reactions were started by the addition of 25 μl of 12 mM MgATP (4 mM final concentration in assay) or assay buffer for background controls. Reactions were stopped by adding 200 μl of ice-cold washing buffer and immediately followed by filtration on glass fiber filters in a 96-well format (filter plate). Scintillation buffer was added to the washed and dried filter plate and scintillation was counted subsequently. Probe substrates were taurocholate (2 μM) for BSEP vesicles and E217βG (1 μM) for MRP2 and MRP3 vesicles. For all wells the translocated amount of the probe substrate was determined in cpm units. Relative activities were calculated with the following equation:
(§2) Activity %=(A−B)/(C−D)×100 Where A=translocated amount of substrate in the presence of TA and ATP, B=translocated amount of substrate in the presence of TA, C=translocated amount of substrate in the presence of solvent and ATP and D=translocated amount of substrate in the presence of solvent. […]

OATP1B3 = OATP1B3 (Homo sapiens (Human), UniProt Q9NPD5); test: Uptake transporter inhibition, OATP1B3; assay type: cell-based; settings: CHO cells, probe substrate Fluo-3
OATP1B3, sequence (Q9NPD5 whole entry): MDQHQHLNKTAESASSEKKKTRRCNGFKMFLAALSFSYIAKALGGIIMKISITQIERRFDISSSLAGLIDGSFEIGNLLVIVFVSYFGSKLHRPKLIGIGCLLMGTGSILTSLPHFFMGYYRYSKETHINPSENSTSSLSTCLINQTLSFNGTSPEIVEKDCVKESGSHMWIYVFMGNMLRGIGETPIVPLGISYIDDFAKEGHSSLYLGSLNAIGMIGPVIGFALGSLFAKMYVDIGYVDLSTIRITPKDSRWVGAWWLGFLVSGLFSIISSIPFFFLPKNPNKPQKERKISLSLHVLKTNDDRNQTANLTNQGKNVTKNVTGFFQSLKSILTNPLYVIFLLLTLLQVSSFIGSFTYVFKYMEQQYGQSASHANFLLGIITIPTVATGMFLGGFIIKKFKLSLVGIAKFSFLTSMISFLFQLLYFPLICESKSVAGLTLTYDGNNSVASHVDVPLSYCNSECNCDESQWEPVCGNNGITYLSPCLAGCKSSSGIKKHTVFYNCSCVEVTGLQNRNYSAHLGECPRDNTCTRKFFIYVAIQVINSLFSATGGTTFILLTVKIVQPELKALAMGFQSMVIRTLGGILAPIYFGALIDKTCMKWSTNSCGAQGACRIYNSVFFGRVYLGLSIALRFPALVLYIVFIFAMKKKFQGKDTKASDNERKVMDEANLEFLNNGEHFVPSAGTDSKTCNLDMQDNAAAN
Procedure: (§3) To assess the inhibition of the […] and OAT1B3 uptake transporters, an in vitro uptake transporter assay from Solvo Biotechnology Inc. was used. […] Parental cell line CHO-K was used as negative control. […] Before experiments the medium was aspirated by vacuum suction, cells were washed with 2×100 μl of Krebs-Henseleit buffer pH 7.3 (prepared from Sigma chemicals, Sigma-Aldrich, St Louis, Mo.). Uptake experiments were carried out at 37° C. in 50 μl of Krebs-Henseleit buffer (pH 7.3) containing the probe substrate and the TA or solvent, respectively. […] The probe substrate for the OATP1B1 assay was E3S (0.1 μM) and for the OATP1B3 assay was Fluo-3 (10 μM). The translocated amount of probe substrate was determined for each well in cpm. Relative activities were calculated from the equation: Activity%=(A−B)/(C−D)×100

[1] = Anti-metabolic effect (MTS) in replicon cells; settings: human
Procedure: (§4) Dilution series are prepared; each dilution series is performed in at least duplicate.
(§5) The selectivity index (SI), indicative of the therapeutic window of the compound, is calculated as CC50/EC50.
(§6) Compounds were analysed in the genotype 1b replicon assay using Huh5.2 cells as described in the General Methods.

[2] = Mouse in vivo oral and iv PK; settings: male, CD1 mice, whole blood; for clearance: iv at 1 mg/kg; for AUC(0-t): read-out: po AUClast
Procedure: For sanglifehrin analogues, whole blood is analysed. Compounds are formulated in 5% ethanol/5% cremophor EL/90% saline for both p.o. and i.v. administration. Groups of 3 male CD1 mice are dosed with either 1 mg/kg i.v. or 5 or 10 mg/kg p.o. Blood samples (40 μL) are taken via saphenous vein, pre-dose and at 0.25, 0.5, 2, 8, and 24 hours, and diluted with an equal amount of dH20 and put on dry ice immediately. Samples are stored at −70° C. until analysis. The concentration of the compound of the invention or parent compound in the sample is determined via LCMS as follows: 20 μL of blood:H2O (1:1, v/v)/PK sample is added with 20 μL Internal standard (hydroxyl macrocycle, 6) at 100 ng/mL, 20 μL working solution/MeOH and 150 μL of ACN, vortexed for 1 minute at 1500 rpm, and centrifuged at 12000 rpm for 5 min. The supernatant is then injected into LC-MS/MS. The time-course of blood concentrations is plotted and used to derive area under the whole blood concentration-time curve (AUC—which is directly proportional to the total amount of unchanged drug that reaches the systemic circulation). These values are used to generate PK parameters where possible.
To assess the pharmacokinetics of the compounds in an in vivo setting, compounds were dosed po at 10 or 5 mg/kg and iv at 1 mg/kg to groups of CD1 mice. Pharmacokinetic analysis was carried out as described in the general methods. The PK parameters are shown below.

OATP1B1 = OATP1B1 (Homo sapiens (Human), UniProt Q9Y6L6); test: Uptake transporter inhibition, OATP1B1; assay type: cell-based; settings: CHO cells, probe substrate E3S
Procedure: as §3

[3] = test system: HCV genotype 1b I389luc-ubi-neo/NS3-3'/5.1 replicon in Huh5.2 cells; test: HCV genotype 1b replicon assay, antiviral effect (luciferase); assay type: cell-based, Hepatitis C virus; settings: for pEC50: Hepatitis C virus, Huh-5-2, 72 h; for Selectivity index (CC50/EC50): Huh5.2 replicon assay
Procedure: as §4
For the evaluation of antiviral effects, assay medium is aspirated and the cell monolayers are washed with PBS. The wash buffer is aspirated, 25 μL of Glo Lysis Buffer (Cat. No. E2661, Promega) is added after which lysis is allowed to proceed for 5 min at room temperature. Subsequently, 50 μL of Luciferase Assay System (Cat. No. E1501, Promega) is added and the luciferase luminescence signal is quantified immediately (1000 ms integration time/well, Safire^2, Tecan). Relative luminescence units are converted to percentage of untreated controls.
as §5, §6

[4] = target: Bile Salt Export Pump (BSEP) (Homo sapiens (Human), UniProt O95342); test: Vesicular efflux transporter inhibition, BSEP; assay type: biochemical; settings: membrane vesicles, probe taurocholate
Procedure: Relative activities were calculated with the following equation: […]

[5] = target: P-glycoprotein (Pgp/MDR1) (Homo sapiens (Human), UniProt P08183); test: Inhibition of Pgp transporter using MDR1-MDCK cells; assay type: cell-based; settings: loperamide substrate
P-glycoprotein (Pgp/MDR1), sequence (P08183 whole entry): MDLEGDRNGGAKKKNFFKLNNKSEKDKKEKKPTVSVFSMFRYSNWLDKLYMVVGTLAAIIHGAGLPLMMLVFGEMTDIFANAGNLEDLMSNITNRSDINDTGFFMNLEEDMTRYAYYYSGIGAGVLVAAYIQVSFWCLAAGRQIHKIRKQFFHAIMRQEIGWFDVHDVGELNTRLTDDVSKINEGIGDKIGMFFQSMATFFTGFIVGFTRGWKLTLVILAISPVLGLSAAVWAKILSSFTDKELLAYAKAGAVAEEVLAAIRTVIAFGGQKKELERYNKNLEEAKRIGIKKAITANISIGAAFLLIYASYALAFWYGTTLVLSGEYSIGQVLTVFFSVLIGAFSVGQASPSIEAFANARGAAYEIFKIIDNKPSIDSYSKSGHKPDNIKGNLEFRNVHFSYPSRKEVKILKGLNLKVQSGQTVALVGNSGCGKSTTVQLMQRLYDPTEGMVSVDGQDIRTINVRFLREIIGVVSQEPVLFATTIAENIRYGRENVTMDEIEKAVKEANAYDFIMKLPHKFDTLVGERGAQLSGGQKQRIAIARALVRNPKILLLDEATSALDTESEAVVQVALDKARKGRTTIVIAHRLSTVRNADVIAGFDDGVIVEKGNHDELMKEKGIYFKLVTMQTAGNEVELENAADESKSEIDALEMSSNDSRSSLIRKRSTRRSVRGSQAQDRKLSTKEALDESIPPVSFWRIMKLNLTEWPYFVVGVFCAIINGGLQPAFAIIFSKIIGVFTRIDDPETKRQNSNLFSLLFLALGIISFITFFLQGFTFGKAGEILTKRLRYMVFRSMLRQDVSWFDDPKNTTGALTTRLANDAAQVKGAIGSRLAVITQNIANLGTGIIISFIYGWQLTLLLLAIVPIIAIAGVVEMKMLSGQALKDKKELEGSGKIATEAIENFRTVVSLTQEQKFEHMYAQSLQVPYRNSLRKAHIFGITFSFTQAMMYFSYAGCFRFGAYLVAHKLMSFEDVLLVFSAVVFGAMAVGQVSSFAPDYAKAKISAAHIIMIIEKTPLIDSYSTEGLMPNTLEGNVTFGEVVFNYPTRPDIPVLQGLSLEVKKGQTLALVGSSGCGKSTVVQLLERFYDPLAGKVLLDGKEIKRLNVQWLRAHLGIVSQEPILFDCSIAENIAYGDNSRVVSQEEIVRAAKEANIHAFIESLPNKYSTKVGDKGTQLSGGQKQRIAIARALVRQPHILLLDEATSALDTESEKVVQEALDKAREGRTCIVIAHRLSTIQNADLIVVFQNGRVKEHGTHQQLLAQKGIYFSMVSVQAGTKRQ
Procedure: To assess the inhibition of the P-glycoprotein (Pgp/MDR1) transporter, an in vitro ATPase assay from Cyprotex was used. MDR1—MDCK cells obtained from the NIH (Rockville, Md., USA) were used. Following culture, the monolayers were prepared by rinsing both basolateral and apical surfaces twice with buffer at pH 7.4 and 37° C. […] For the apical to basolateral study (A-B), buffer at pH 7.4 was removed from the apical compartment and replaced with loperamide dosing solutions before being placed in the ‘companion’ plates. The solutions were prepared by diluting loperamide in DMSO with buffer to give a final loperamide concentration of 5 μM (final DMSO concentration adjusted to 1%). The fluorescent integrity marker Lucifer yellow was also included in the dosing solution. The experiment was performed in the presence and absence of the test compound (applied to both the apical and basolateral compartments). For basolateral to apical (B-A) study, the P-glycoprotein substrate, loperamide (final concentration=5 μM) was placed in the basolateral compartment. The experiment was performed in the presence and absence of the test compound (applied to the apical and basolateral compartments). […] The test compound was assessed at 0.1, 0.3, 1, 3, 10, 30 and 50 μM. […] After analysis, an IC50 was calculated (i.e., inhibitor concentration (test drug) achieving half maximal inhibition effect).

CypA = CypA (Homo sapiens (Human), UniProt P62937); test: biochemical
Procedure: An alternative methodology for analysing interaction with cyclophilins is described as follows: The PPlase activity of recombinant CypA or D, produced by thrombin cleavage of GST-CypA or D, was determined by following the rate of hydrolysis of N-succinyl-Ala-Ala-Pro-Phe-p-nitroanilide by chymotrypsin. Chymotrypsin only hydrolyzes the trans form of the peptide, and hydrolysis of the cis form, the concentration of which is maximized by using a stock dissolved in trifluoroethanol containing 470 mM LiCl, is limited by the rate of cis-trans isomerization. CypA or D was equilibrated for 1 h at 5° C. with selected test article using a drug concentration range from 0.1 to 20 nM. The reaction was started by addition of the peptide, and the change in absorbance was monitored spectrophotometrically at 10 data points per second. The blank rates of hydrolysis (in the absence of CypA or D) were subtracted from the rates in the presence of CypA or D. The initial rates of the enzymatic reaction were analyzed by first-order regression analysis of the time course of the change in absorbance.
To assess the direct inhibition of CypA Peptidyl Prolyl cis-trans Isomerase (PPlase) activity, a method was used as described in the general methods.

HIV = test: microbe, parasite or virus in culture; assay type: cell-based; settings: Human immunodeficiency virus 1, HeLa, read-out: HeLa cells EC50
Procedure: Briefly, human PBMCs were purified from fresh blood by banding on Ficoll-Hypaque (30 min, 800 g, 25° C.). Primary human CD4+ T cells were purified from PBMCs by positive selection with anti-CD4 Dynabeads and subsequent release using Detachabead. […] Three days after stimulation, cells were split 1:2 in medium containing IL-2 (200 units/ml final concentration). Cultures were then split 1:2 every 2 days in IL-2 medium and infected with HIV at 7 days after stimulation. […] To obtain monocyte-derived macrophages, cells were allowed to adhere to plastic and cultured for 6 days to allow differentiation.
CD4+ HeLa cells, Jurkat cells, activated CD4+ peripheral blood T-lymphocytes and macrophages (500,000 cells/100 μL) were incubated with pNL4.3-GFP (X4 virus) or pNL4.3-BaL-GFP (R5 virus) (100 ng of p24) in the presence of increasing concentrations of test article, Forty-eight hours later, infection was scored by analyzing the percentage of GFP-positive cells by FACS and EC50 calculated.
Compounds were analysed in an HIV antiviral assay using HeLa cells as described in the General Methods.

MRP3 = MRP3 (Homo sapiens (Human), UniProt O15438); test: Vesicular efflux transporter inhibition, MRP3
MRP3, sequence (O15438 whole entry): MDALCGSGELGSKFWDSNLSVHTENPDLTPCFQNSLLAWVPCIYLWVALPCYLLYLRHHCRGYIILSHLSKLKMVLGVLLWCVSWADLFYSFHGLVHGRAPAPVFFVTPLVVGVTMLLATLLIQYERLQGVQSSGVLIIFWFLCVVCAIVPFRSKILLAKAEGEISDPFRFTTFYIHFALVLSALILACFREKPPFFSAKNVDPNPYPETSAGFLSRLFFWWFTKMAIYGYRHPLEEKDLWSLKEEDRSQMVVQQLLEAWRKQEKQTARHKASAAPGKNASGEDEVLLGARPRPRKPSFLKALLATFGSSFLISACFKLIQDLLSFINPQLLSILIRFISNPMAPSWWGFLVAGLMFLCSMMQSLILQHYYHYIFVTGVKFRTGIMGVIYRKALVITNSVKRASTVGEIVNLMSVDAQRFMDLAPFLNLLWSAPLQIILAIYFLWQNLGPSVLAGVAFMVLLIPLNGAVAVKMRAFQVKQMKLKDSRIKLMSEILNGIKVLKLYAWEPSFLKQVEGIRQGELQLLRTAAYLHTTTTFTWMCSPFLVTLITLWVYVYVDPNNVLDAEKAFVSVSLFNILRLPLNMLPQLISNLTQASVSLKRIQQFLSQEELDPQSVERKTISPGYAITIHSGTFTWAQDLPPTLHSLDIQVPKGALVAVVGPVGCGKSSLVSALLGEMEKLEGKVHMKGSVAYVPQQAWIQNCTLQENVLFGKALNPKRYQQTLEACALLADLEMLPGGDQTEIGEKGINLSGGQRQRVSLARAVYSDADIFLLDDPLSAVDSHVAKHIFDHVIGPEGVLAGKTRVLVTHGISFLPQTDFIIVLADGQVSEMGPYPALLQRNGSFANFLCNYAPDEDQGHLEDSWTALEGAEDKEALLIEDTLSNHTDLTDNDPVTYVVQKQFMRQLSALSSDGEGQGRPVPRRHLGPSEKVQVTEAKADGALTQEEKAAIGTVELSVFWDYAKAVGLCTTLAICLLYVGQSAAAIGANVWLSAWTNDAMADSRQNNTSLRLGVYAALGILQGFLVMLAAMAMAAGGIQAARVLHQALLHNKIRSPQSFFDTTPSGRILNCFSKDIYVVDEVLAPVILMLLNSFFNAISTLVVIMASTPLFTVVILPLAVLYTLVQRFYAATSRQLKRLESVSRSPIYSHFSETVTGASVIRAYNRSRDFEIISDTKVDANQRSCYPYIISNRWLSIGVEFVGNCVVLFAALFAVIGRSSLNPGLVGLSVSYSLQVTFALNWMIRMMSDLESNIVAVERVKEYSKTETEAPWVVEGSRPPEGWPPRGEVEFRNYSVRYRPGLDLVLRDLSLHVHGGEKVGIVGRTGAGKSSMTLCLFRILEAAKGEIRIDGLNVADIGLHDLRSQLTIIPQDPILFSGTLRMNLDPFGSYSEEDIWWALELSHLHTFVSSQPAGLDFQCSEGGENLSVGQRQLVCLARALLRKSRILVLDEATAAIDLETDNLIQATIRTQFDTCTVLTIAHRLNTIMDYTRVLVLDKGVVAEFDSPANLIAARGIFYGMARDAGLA
Procedure: as §1, §2

HBV = settings: Ptak et al. 2008; read-out: IC50 against HBV; cited from earlier work
Huh5.2 cells = test: Anti-metabolic effect (MTS) in replicon cells; settings: Huh5.2 cells, MTS, 72 hours
Procedure: as §4, §5, §6

MRP2, sequence (Q92887 whole entry): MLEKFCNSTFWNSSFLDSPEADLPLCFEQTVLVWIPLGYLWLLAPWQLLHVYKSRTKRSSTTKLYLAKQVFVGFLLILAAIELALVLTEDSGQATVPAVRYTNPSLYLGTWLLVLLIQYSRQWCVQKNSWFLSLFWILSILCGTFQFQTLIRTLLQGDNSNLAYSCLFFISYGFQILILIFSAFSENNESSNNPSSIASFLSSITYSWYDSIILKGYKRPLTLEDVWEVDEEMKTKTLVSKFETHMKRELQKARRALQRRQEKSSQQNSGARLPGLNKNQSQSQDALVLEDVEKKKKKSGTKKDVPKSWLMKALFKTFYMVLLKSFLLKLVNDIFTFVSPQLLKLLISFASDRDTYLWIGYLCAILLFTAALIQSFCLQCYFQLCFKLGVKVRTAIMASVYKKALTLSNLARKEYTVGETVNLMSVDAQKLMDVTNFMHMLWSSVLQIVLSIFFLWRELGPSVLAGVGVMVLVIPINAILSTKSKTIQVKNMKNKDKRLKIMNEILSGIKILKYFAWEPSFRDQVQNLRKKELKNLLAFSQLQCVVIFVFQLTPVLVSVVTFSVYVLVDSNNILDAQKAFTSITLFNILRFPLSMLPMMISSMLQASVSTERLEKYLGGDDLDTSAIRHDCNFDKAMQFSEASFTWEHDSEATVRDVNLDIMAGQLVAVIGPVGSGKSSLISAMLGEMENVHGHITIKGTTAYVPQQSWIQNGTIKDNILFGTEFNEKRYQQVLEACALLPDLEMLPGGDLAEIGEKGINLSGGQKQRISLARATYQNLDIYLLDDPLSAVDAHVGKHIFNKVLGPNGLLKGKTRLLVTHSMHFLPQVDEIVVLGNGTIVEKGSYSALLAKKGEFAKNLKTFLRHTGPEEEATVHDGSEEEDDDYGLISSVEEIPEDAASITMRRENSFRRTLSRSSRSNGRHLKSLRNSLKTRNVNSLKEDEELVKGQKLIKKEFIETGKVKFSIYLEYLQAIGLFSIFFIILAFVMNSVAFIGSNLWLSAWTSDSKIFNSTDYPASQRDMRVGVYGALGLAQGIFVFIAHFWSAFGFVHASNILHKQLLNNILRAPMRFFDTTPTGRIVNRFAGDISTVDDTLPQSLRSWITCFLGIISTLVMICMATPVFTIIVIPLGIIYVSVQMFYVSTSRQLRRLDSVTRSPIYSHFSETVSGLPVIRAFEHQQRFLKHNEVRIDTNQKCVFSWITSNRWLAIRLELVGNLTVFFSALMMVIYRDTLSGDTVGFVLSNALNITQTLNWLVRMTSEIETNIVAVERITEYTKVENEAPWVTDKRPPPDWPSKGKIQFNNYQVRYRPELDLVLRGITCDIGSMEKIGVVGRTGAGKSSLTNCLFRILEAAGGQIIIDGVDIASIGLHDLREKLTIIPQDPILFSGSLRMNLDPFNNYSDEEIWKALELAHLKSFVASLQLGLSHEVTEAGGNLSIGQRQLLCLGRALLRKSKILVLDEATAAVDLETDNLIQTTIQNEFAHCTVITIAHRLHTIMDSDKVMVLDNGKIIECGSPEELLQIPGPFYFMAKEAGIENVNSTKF

SMILES | pIC50 (MRP2) | pIC50 (OATP1B3) | CC50 at 72 h [1] [nM] | clearance [2] [mL/min/kg] | AUC(0-t) ([2]; po 5 mg/kg) [ng·h/mL] | pIC50 (OATP1B1) | pEC50 [3] | Selectivity index (CC50/EC50) [3] | pIC50 [4] | pIC50 [5] | pIC50 (CypA) | pEC50 (HIV) | pIC50 (MRP3) | pIC50 (HBV) | CC50 (Huh5.2 cells) [nM] | pIC50 (CypA; read-out: CypA PPIase IC50, recombinant CypA) | AUC(0-t) ([2]; po 10 mg/kg) [ng·h/mL]
CC(=O)CC[C@H]1C(=O)N[C@@H](C(C)C)C(=O)N[C@@H](Cc2cc(O)cc(F)c2)C(=O)N2CCCC(N2)C(=O)O[C@H](/C(C)=C/C=C/C(=O)N2CCCCO2)C/C=C/C=C/[C@H](O)[C@H](C)[C@H]1O (stereo partly drawn) [Compound 24] | < 4.30 | 5.74 | > 100000 | 0.283 | 8220 | 5.37 | 7.48 | >3030 | 4.91 | < 4.30 | 9.51 | 6.89 | < 4.30 | – | – | – | –
C/C=C/C[C@@H](C)[C@@H](O)[C@H]1C(=O)N[C@@H](CC)C(=O)N(C)[C@H](C)C(=O)N(CC)[C@@H](C(C)C)C(=O)N[C@@H](C(C)C)C(=O)N(C)[C@@H](CC(C)C)C(=O)N[C@@H](C)C(=O)N[C@H](C)C(=O)N(C)[C@@H](CC(C)C)C(=O)N(C)[C@@H](CC(C)C)C(=O)N(C)[C@@H](C(C)C)C(=O)N1C [DEBIO-025, 2, DEBIO-025] | 4.80 | 6.72 | – | – | – | 6.35 | 7.02 | 111 | 6.74 | 6.14 | – | 5.82 | < 4.30 | 5.39 | 11200 | 9.10 | –
Nc1nc(=O)n([C@@H]2CS[C@H](CO)O2)cc1F [Emtricitabine] | – | – | – | – | – | – | – | – | – | – | – | 6.40 | – | – | – | – | –
CC(=O)CC[C@H]1C(=O)N[C@@H](C(C)C)C(=O)N[C@@H](Cc2cccc(O)c2)C(=O)N2CCC[C@H](N2)C(=O)O[C@H](/C(C)=C/CO)C/C=C/C=C/[C@H](O)[C@H](C)[C@H]1O [Hydroxymacrocycle, 6] | – | – | 83600 | – | – | – | 5.08 | 9.9 | – | – | – | – | – | – | – | – | –
CC[C@H]1C[C@H](C)[C@@]2(NC1=O)O[C@@H](C[C@H](O)[C@@H](C)CC/C=C/C=C(\C)[C@@H]1C/C=C/C=C/[C@H](O)[C@H](C)[C@@H](O)[C@@H](CCC(C)=O)C(=O)N[C@@H](C(C)C)C(=O)N[C@@H](Cc3cccc(O)c3)C(=O)N3CCC[C@H](N3)C(=O)O1)[C@H](C)[C@H](O)[C@@H]2C [Sanglifehrin A, 5, Sanglifehrin A] | – | – | 9100 | 0.9 | – | – | 6.50 | – | – | – | – | – | – | – | – | – | 2330
